In EP2440567B1, “SUBSTITUTED 16,17-ANNELLATED STEROID COMPOUNDS FOR USE IN WOMEN'S HEALTHCARE” (priority 2009, dated 2010):

Columns and labels:
bone = assay: AOST BMD (bone mineral density); type: in vivo
[1] = tested on: estrogen receptors in the CNS; assay: Lordosis model (facilitation of female sexual behaviour); type: in vivo
pregnant rats = assay: Embryofetal toxicity study in pregnant rats; type: in vivo, rat
endometrium = assay: 4-week phase I study, endometrial biopsies histopathology; type: in vivo; settings: female human volunteers; biopsies on day 29; exposure via oral 10 mg daily Org 41621
vaginal tissue = assay: Allen-Doisy test; type: in vivo
ovulation = assay: Ovulation inhibition in intact cycling female rats; type: in vivo
[2] = tested on: circulating levels of LH and FSH; assay: 4-week multiple dose study in ovariectomized female rats; type: in vivo, rat

Row | SMILES | AOST BMD (rat) MAD p.o. (bone) [mg/kg.day] | Lordosis (rat) MAD p.o. [1] [mg/kg.day] | minor defects, incidence of wavy ribs (pregnant rats; pregnant rats, oral gavage, 0.1 mg/kg) | body weight gain of the dams (pregnant rats; pregnant rats, oral gavage, 0.1 mg/kg/day up to and including 10 mg/kg/day) | effects (fetal defects) (pregnant rats; pregnant rats, oral gavage, 0.3 mg/kg, based on a total of 13 fetuses) | major defects (fetuses) (pregnant rats; pregnant rats, oral gavage, treated groups) | teratogenicity in the rat (pregnant rats; preliminary embryofetal development study, up to a dose of 0.3 mg/kg) | Histopathology scores of endometrial biopsies (endometrium) | signs of hyperplasia (endometrium) (endometrium) | Allen-Doisy (rat) MAD p.o. (vaginal tissue) [mg/kg.day] | Ovulation Inhibition (rat) MAD p.o. (ovulation) [mg/kg.day] | suppression of circulating levels of LH and FSH ([2]; 4-week multiple dose, oral and subcutaneous application in gelatine/mannitol) | behaviour on vaginal tissue, cholesterol metabolism and bone (bone mineral density, circulating osteocalcin) ([2]; same series of studies) | major fetal abnormalities (ribs, humerus and scapula) (pregnant rats; pregnant rats, oral gavage, 0.09 mg/kg) | major fetal abnormalities (ribs, humerus and scapula) (pregnant rats; pregnant rats, oral gavage, 0.15 mg/kg)
1 | CCC[C@@H]1Cc2cc(O)ccc2[C@H]2CC[C@@]3(C)[C@@H](C[C@H]4CCC(=O)C[C@]43O)[C@H]12 [Compound 10, (7α,16β,17α)-3,17-dihydroxy-7-propyl-16,24-cyclo-19,21-dinorchola-1,3,5(10)-trien-22-one] | 0.12 | 0.14 | 4/153 | significant reduction in body weight gain | No effects | No major defects | no evidence of teratogenicity | mostly atrophic or inactive endometrium with some subjects showing conversion to secretory (P-type) endometrium | no signs of hyperplasia | 0.15 | 0.10 | effectively suppress | behaves as an estrogen receptor agonist | – | –
2 | C#C[C@]1(O)CC[C@H]2[C@@H]3CCc4cc(O)ccc4[C@H]3CC[C@@]21C [EE, Ethynyl-Estradiol, reference compound] | 0.020 | 0.035 | – | – | – | – | – | – | – | 0.016 | 0.022 | – | – | – | –
3 | CCC[C@@H]1Cc2cc(O)ccc2[C@H]2CC[C@@]3(C)[C@@H](C[C@H]4CC[C@H](O)C[C@]43O)[C@H]12 [Org 41621, (7α,16β,17α,22β)-7-propyl-16,24-cyclo-19,21-dinorchola-1,3,5(10)-triene-3,17,22-triol, reference compound] | – | – | – | – | – | – | – | – | – | – | – | – | – | 3/273 | 11/216
